From BindingDB's records for patent US117808 (H. Lundbeck, 2023)
Several values for one entry are separate records, joined by “and”; a condition that tells them apart may be missing. Equal entries are not always repeated.

Tests used:
[1] = molecular target: Leucine-rich repeat serine/threonine-protein kinase 2 (Homo sapiens, UniProt Q5S007); assay: LRRK2 Wild-Type and G2019S Kinase Activity Assay
Protocol: (§1) The LRRK2 kinase was obtained from Invitrogen (Life Technologies Corporation) and comprises residue 970 to 2527 of the full length human wild-type LRRK2 kinase, or a similar sequence with the G2019S mutation. As discussed above, this mutation increases the kinase activity relative to the wild type. The kinase reactions were performed in a 20 uL volume in 384-well plates. The kinase reaction buffer consisted of 50 mM Tris pH 8.5, 0.01% BRIJ-35, 10 mM MgCl2, 1 mM EGTA, and 2 mM DTT.In the assay, 1 nM LRRK2 WT or 250 pM LRRK2 G2019S kinase in kinase reaction buffer was incubated with the test compound (typically at 0 to 30 uM) for 30 minutes before the kinase reaction was initiated by addition of 1.3 mM ATP and 0.4 uM fluorescein-LRRKtide. The reaction mixture (20 ul total volume) was incubated for 3.5 h (for LRRK2 WT) and 3 h (for LRRK2 G2019S) at 30 C., before the reaction was terminated by addition of 10 mM EDTA and 1 nM terbium-labelled anti-phospho-LRRKtide antibody (final volume […]). The mixture was further incubated for 30 minutes at RT. TR-FRET was measured by excitation of the terbium-donor with 340 nm light and subsequent (delay time 100 us) measurement of terbium and fluorescein emission at 495 nm and 520 nm, respectively, over a time window of 1000 us. The measurement was repeated 30 times for fluorescein and 30 times for terbium emission with a 1000 us time window between repeats. TR-FRET measurements were performed on a Biotek Synergy plate. The TR-FRET signal was calculated as the emission-ratio at 520 nm over 495 nm.

[2] = molecular target: Leucine-rich repeat serine/threonine-protein kinase 2 [G2019S] (Homo sapiens, UniProt Q5S007, G2019S); assay: LRRK2 Wild-Type and G2019S Kinase Activity Assay
Protocol: as §1

Sequence of Leucine-rich repeat serine/threonine-protein kinase 2 [G2019S] (Q5S007 whole entry G2019S): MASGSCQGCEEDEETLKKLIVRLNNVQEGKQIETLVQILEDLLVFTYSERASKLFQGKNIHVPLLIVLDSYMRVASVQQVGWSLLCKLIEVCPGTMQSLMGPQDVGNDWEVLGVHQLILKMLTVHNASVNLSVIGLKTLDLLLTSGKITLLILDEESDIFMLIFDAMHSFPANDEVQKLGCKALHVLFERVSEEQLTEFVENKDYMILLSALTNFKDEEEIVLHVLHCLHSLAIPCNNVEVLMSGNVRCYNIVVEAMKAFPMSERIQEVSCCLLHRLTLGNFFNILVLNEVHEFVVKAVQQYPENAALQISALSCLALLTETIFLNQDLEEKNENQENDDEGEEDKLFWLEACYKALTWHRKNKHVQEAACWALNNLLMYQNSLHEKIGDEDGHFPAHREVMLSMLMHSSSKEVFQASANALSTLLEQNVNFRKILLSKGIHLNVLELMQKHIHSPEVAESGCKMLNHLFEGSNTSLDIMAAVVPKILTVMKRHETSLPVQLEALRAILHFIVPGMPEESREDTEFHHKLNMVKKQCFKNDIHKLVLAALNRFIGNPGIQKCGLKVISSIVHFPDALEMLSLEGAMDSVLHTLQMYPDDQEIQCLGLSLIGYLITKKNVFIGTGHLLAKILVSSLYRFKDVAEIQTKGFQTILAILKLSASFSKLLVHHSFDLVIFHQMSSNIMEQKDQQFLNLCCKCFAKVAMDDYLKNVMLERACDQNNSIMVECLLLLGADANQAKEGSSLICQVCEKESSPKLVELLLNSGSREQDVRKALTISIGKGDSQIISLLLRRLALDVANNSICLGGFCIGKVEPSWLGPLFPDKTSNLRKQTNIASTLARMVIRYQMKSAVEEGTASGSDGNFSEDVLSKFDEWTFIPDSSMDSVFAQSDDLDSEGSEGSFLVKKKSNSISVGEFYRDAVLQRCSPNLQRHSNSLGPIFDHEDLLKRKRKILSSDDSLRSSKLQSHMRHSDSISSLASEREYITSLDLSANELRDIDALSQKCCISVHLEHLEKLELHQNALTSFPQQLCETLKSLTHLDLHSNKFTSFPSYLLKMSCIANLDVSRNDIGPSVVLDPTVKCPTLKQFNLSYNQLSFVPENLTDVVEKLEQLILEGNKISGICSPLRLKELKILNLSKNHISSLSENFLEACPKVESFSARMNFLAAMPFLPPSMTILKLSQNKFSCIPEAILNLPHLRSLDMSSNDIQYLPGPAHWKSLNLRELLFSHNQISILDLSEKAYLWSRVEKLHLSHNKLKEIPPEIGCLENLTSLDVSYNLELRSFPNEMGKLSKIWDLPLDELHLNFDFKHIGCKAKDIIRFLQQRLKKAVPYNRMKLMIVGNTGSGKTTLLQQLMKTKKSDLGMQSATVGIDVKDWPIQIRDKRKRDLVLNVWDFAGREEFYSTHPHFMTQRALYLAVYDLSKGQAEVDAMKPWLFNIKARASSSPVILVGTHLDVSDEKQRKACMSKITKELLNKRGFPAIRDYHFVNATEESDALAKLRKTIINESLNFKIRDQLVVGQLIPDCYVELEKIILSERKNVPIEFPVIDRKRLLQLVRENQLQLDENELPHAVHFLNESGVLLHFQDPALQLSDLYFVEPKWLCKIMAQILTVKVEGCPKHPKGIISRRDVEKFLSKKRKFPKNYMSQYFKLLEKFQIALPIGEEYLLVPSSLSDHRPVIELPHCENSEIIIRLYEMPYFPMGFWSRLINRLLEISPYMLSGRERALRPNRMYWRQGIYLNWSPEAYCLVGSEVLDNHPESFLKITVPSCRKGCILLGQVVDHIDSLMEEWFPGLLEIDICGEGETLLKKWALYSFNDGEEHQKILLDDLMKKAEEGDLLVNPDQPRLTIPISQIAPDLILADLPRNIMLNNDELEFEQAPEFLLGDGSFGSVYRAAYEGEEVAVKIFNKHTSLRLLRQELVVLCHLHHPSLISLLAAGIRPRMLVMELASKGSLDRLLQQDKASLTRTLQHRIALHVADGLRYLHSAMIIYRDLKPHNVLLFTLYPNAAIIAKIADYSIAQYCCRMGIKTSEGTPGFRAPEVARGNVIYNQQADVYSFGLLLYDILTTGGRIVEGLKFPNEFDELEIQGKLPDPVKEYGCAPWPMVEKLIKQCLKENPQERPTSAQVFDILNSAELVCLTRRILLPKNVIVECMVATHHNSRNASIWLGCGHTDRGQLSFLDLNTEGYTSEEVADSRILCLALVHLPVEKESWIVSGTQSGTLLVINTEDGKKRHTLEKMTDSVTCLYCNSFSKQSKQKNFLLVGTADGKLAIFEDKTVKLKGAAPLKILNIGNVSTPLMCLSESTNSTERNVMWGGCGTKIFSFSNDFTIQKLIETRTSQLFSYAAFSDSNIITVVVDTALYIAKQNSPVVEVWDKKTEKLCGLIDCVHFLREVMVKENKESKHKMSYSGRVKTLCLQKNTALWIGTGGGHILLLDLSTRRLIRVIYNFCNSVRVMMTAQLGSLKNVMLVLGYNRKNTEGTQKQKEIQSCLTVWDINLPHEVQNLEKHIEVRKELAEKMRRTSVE
Sequence of Leucine-rich repeat serine/threonine-protein kinase 2 (Q5S007 whole entry): as the sequence (Q5S007 whole entry G2019S) above, with S2019G counted along it

Row | IC50 [1] | IC50 [2] | SMILES
1 | 25 nM and 14 nM | 7.3 nM and 4.3 nM | Cc1c2c(nn1[C@@H]1CCCCOC1)OCCCn1nc(Cl)c3cnc(nc31)N2 [US11780851, Example 29]
2 | 9.2 nM | 2.2 nM | Cc1c2c(nn1[C@@H]1CCCOC1)OCCCn1nc(Cl)c3cnc(nc31)N2 [US11780851, Example 61]
3 | 12 nM | 4 nM | Cc1c2c(nn1C1CCCCOC1)OCCCn1nc(Cl)c3cnc(nc31)N2 (centres undefined) [US11780851, Example 30]
4 | 25 nM | 9 nM | Cc1c2c(nn1[C@H]1CCCOC1)OCCCn1nc(Cl)c3cnc(nc31)N2 (single isomer, unassigned) [US11780851, Example 60]
5 | 2.6 nM | 0.88 nM | Cc1c2c(nn1[C@H]1CCOC3(CC3)C1)OCCCn1nc(Cl)c3cnc(nc31)N2 [US11780851, Example 54]
6 | 28 nM | 11 nM | Cc1c2c(nn1C1C3COCC31)OCCCn1nc(Cl)c3cnc(nc31)N2 (centres undefined) [US11780851, Example 38]
7 | 17 nM | 6.2 nM | Cc1c2c(nn1[C@@H]1CCCOCC1)OCCCn1nc(Cl)c3cnc(nc31)N2 [US11780851, Example 59]
8 | 13 nM | 4.3 nM | Cc1c2c(nn1C1CC3CCC(C1)O3)OCCCn1nc(Cl)c3cnc(nc31)N2 (centres undefined) [US11780851, Example 44]
9 | 8 nM | 2.2 nM | Cc1c2c(nn1C1CCOCC1)OCCCn1nc(Br)c3cnc(nc31)N2 [US11780851, Example 6]
10 | 19 nM | 10 nM | Cc1c2c(nn1[C@@H]1CCO[C@H](C)C1)OCCCn1nc(Cl)c3cnc(nc31)N2 [US11780851, Example 52]
11 | 9.8 nM | 2.4 nM | Cc1c2c(nn1C1CCOCC1)OCCCn1nc(Cl)c3cnc(nc31)N2 [US11780851, Example 20]
12 | 13 nM | 3.1 nM | Cc1c2c(nn1C1CCOC[C@@]1(C)F)OCCCn1nc(Cl)c3cnc(nc31)N2 (some centres undefined) [US11780851, Example 47]
13 | 10 nM | 3.5 nM | Cc1c2c(nn1[C@@H]1CCOC[C@H]1C)OCCCn1nc(Cl)c3cnc(nc31)N2 [US11780851, Example 22]
14 | 10 nM | 3.7 nM | Cc1c2c(nn1[C@H]1CCOC[C@H]1C)OCCCn1nc(Cl)c3cnc(nc31)N2 [US11780851, Example 21]
15 | 44 nM | 20 nM | Cc1c2c(nn1[C@H]1CCOC[C@@H]1C)OCCCn1nc(Cl)c3cnc(nc31)N2 [US11780851, Example 23]
16 | 15 nM | 6.1 nM | Cc1c2c(nn1[C@@H]1CCOC[C@@H]1F)OCCCn1nc(Cl)c3cnc(nc31)N2 [US11780851, Example 32]
17 | 13 nM | 3.9 nM | Cc1c2c(nn1[C@@H]1CCO[C@@H](C)C1)OCCCn1nc(Cl)c3cnc(nc31)N2 [US11780851, Example 19]
18 | 17 nM | 5.3 nM | Cc1c2c(nn1[C@@H]1CCOC(C)(C)C1)OCCCn1nc(Cl)c3cnc(nc31)N2 [US11780851, Example 43]
19 | 5.6 nM | 2.4 nM | Cc1c2c(nn1[C@H]1CCOC[C@@H]1F)OCCCn1nc(Cl)c3cnc(nc31)N2 [US11780851, Example 31]
20 | 11 nM | 3.6 nM | Cc1c2c(nn1[C@H]1CCO[C@@H](C)C1)OCCCn1nc(Cl)c3cnc(nc31)N2 [US11780851, Example 51]
21 | 90 nM | 18 nM | Cc1c2c(nn1C1CCOC[C@]1(C)F)OCCCn1nc(Cl)c3cnc(nc31)N2 (some centres undefined) [US11780851, Example 48]

More lines, now with the values behind:

Row | SMILES | IC50 [1] | IC50 [2]
22 | F[C@@H]1COCC[C@H]1n1nc2c(c1Br)Nc1ncc3c(Cl)nn(c3n1)CCCO2 [US11780851, Example 62] | 17 nM | 5.9 nM
23 | Cc1c([N+](=O)[O-])c(OCCCn2nc(Cl)c3cnc(Cl)nc32)nn1[C@H]1C[C@@H](C)O[C@@H](C)C1 [US11780851, Example 41] | 17 nM | 6.4 nM
24 | F[C@H]1COCC[C@@H]1n1nc2c(c1Br)Nc1ncc3c(Cl)nn(c3n1)CCCO2 [US11780851, Example 63] | 11 nM | 4 nM
25 | Cc1c2c(nn1CC1(C)COC1)OCCCn1nc(Cl)c3cnc(nc31)N2 [US11780851, Example 12] | 32 nM | 12 nM
26 | Cc1c2c(nn1C1(C(N)=O)CC1)OCCCn1nc(Cl)c3cnc(nc31)N2 [US11780851, Example 36] | 23 nM | 7.2 nM
27 | CCc1c2c(nn1[C@@H]1CCOCC1F)OCCCn1nc(Cl)c3cnc(nc31)N2 (some centres undefined) [US11780851, Example 55] | 5.6 nM | 1.5 nM
28 | Cc1c2c(nn1C1CC1(F)F)OCCCn1nc(Cl)c3cnc(nc31)N2 (centres undefined) [US11780851, Example 39] | 19 nM | 7.8 nM
29 | Cc1c2c(nn1[C@H]1CC1(F)F)OCCCn1nc(Cl)c3cnc(nc31)N2 [US11780851, Example 40] | 28 nM | 12 nM
30 | CO[C@H]1CC[C@H](n2nc3c(c2Br)Nc2ncc4c(Cl)nn(c4n2)CCCO3)CC1 [US11780851, Example 50] | 10 nM | 5.3 nM
31 | Cc1c([N+](=O)[O-])c(OCCCn2nc(Cl)c3cnc(Cl)nc32)nn1C1CCOCC1 [US11780851, Example 15] | 9.6 nM and 6.8 nM | 
32 | Cc1c2c(nn1C13CC(C(N)=O)(C1)C3)OCCCn1nc(Cl)c3cnc(nc31)N2 [US11780851, Example 33] | 18 nM | 5.9 nM
33 | CCc1c2c(nn1[C@H]1CCOCC1F)OCCCn1nc(Cl)c3cnc(nc31)N2 (some centres undefined) [US11780851, Example 56] | 4.9 nM | 2 nM
34 | Clc1nn2c3nc(ncc13)Nc1c(nn([C@@H]3CCOC4(CC4)C3)c1Br)OCCC2 [US11780851, Example 65] | 4.8 nM | 1.7 nM
35 | Clc1nn2c3nc(ncc13)Nc1c(nn([C@H]3CCOC4(CC4)C3)c1Br)OCCC2 [US11780851, Example 64] | 11 nM | 5 nM
